Measured values published in patent US7504411B2, “2,3,6-Trisubstituted-4-pyrimidone derivatives” (Mitsubishi Tanabe Pharma Corporation, priority 2003, dated 2009).

What follows are compounds tested against T1, bovine cerebral TPK1 (Bos taurus, UniProt A0A3Q1MT31) (assay: Inhibitory activity against P-GS1 phosphorylation by bovine cerebral TPK1). Settings: 41.7 μM [γ-32P]ATP, 25° C., 2 hours.
T1 construct: Phosphorylation by Bovine Cerebral TPK1; from tissue; host or cells: bovine brain (cerebrum)
T1 sequence (A0A3Q1MT31 1-419): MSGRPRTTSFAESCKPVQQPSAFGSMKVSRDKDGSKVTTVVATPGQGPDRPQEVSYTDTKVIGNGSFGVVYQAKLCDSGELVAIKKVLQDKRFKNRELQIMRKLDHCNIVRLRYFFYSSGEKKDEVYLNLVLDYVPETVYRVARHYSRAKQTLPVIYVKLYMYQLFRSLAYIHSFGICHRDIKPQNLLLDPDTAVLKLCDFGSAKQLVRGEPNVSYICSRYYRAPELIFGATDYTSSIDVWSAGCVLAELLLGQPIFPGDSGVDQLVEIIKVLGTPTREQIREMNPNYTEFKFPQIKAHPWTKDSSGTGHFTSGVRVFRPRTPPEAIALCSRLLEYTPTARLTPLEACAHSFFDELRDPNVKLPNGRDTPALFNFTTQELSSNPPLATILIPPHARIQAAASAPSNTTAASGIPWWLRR
Format: biochemical
Protocol: Inhibitory Activity of the Medicament of the Present Invention against P-GS1 Phosphorylation by Bovine Cerebral TPK1
A mixture containing 100 mM MES-sodium hydroxide (pH 6.5), 1 mM magnesium acetate, 0.5 mM EGTA, 5 mM β-mercaptoethanol, 0.02% Tween 20, 10% glycerol, 12 μg/ml P-GS1, 41.7 μM [γ-^32P] ATP (68 kBq/ml), bovine cerebral TPK1 and a compound shown in Table (a final mixture contained 1.7% DMSO deriving from a solution of a test compound prepared in the presence of 10% DMSO) was used as a reaction system. The phosphorylation was started by adding ATP, and the reaction was conducted at 25° C. for 2 hours, and then stopped by adding 21% perchloric acid on ice cooling. The reaction mixture was centrifuged at 12,000 rpm for 5 minutes and adsorbed on P81 paper (Whatmann), and then the paper was washed four times with 75 mM phosphoric acid, three times with water and once with acetone. The paper was dried, and the residual radioactivity was measured using a liquid scintillation counter.
Cn1c(N2CCNC(c3ccccc3)C2)nc(-c2ccncc2)cc1=O (stereo not drawn) [XA361] showed an IC50 of 18 nM. Cn1c(N2CCCC(C#N)(c3ccccc3)C2)nc(-c2ccncc2)cc1=O (stereo not drawn) [XB80] was tested, and the IC50 was 230 nM. COc1cc(F)ccc1C1CN(c2nc(-c3ccncn3)cc(=O)n2C)CCN1Cc1ccccc1 (stereo not drawn) [YA0864] was tested, and the IC50 was 216 nM.
